Reference: US20070203212A1, “METHOD OF TREATING OSTEOARTHRITIS” (WARNER-LAMBERT COMPANY, priority 2002, published 2007)

Tests used:
Format in all cases: in vivo
[1] = test system: human recombinant IL-6/IL-6sR induced joint pain; test: IL-6 with IL-6 soluble receptor induced joint pain in rat
Experimental: (§1) It should be appreciated that in Biological Methods 1, 2, 4, and 5 below, hind paw weight bearing differentials between the paw of the limb having the control joint (in animals administered test compound vehicle only) and the paw of the limb having the contralateral test joint (in control or inducement animals administered test compound vehicle only and in treatment animals administered test compound dissolved in test compound vehicle) were determined using an incapacitance tester, model 2KG (Linton Instrumentation, Norfolk, United Kingdom). The incapacitance tester has a chamber on top with an outwardly sloping front wall that supports a rat's front limbs, and two weight sensing pads, one for each hind paw, that facilitates this determination. The hind paw weight bearing differentials were expressed in grams and calculated as follows: (the average weight in grams placed on the control limb minus the average weight in grams placed on the contralateral test limb for each of the inducement or treatment animals) minus (the average weight in grams placed on the control limb minus the average weight in grams placed on the contralateral test limb for each of the control animals). All results were statistically analyzed by comparing the average results for an induction or treatment group with the average result for its control group at the same time point using analysis of covariance (“ANCOVA”) followed by the Hoehberg's procedure and those with statistical significance had p<0.05 unless otherwise noted.
Human recombinant IL-6 (100 ng per rat; R&D Systems, Minneapolis, Minn.) was incubated at room temperature with human recombinant IL-6 soluble receptor (300 ng per rat; R&D Systems, Minneapolis, Minn.) in phosphate buffered saline (“PBS”) for 15 minutes prior to injection. Rats were anesthetized with 5% volume/volume (“v/v”) isoflurane gas and maintained with 2% v/v isoflurane gas. The anesthetized rats were given a single intra-articular injection of IL-6/WL-6sR through the infrapatellar ligament of the right knee in a volume of 50 μL. The contralateral control knee was injected with 50 μL of PBS. Administration of isoflurane gas was discontinued, and the rats became fully conscious about 5 minutes later.
Shifts in hind paw weight distribution from the right (arthritic) to the left (contralateral control) paws were utilized as an index of joint pain and as a measure of compound efficacy. An incapacitance tester (Model 2KG, Linton Instrumentation, UK) was employed for determination of hind paw weight distribution. Each data point is the mean of three, 5-second readings.
CI-1027 was dissolved in BPMC vehicle as described above. Baseline changes in hind paw weight distribution readings were determined one day prior to injection of IL-6/IL-6sR. On the day of the experiment (Day 0), a single dose of CI-1027 (10, 30 or 100 mg/kg) was given via oral gavage 3 hours prior to injection of IL-6/IL-6sR (n=10 rats per group). Changes in hind paw weight distribution were determined one, three, and six hours after injection of IL-6/IL-6sR.
In Table 4 below, data from the method of Biological Method 5 are expressed as a percent inhibition of a change in hind paw weight distribution ± the standard error of the mean. The percents inhibition were calculated as follows. Percent inhibition of a change in hind paw weight distribution [formula] wherein: ΔWC is the hind-paw weight differential between the healthy limb and the hrIL-6+ hrIL-6sR injected limb of the control animal group administered vehicle alone, as measured at time 1, 3, or 6 hours post injection; and
ΔWG is the hind-paw weight differential between the healthy limb and the hrIL-6+ hrIL-6sR injected limb of a treatment animal group as measured at time 1, 3, or 6 hours post injection.

[2] = test system: monoclonal antibody-induced arthritis; test: Monoclonal antibody-induced arthritis (MAIA) mouse model, footpad and ankle swelling; conditions: p<0.05 (FIG. 8)
Experimental: In a typical MAIA experiment, groups of four mice were injected intraperitoneally (“i.p.”) with 0.4 mL (BALB/c and DBA/1 strains) or 0.8 mL (C57BL/6, 129X1/SvJ, C3H/HeJ, and C3H/FeJ strains) with a 10 mg/mL solution of Arthrogen-CIA Monoclonal Antibody Blend (Chemicon International, Inc.). Two days later, the mice were injected i.p. with 0.2 mL of a 0.25 mg/mL solution of LPS (lipopolysaccharide form Escherichia coli (“E. coli”) strain 0111B4) in PBS. Footpad and ankle size was assessed using a Dyer Digital Caliper (#655-030-4916) on the day of mAb injection, and every two days following LPS injection.

[3] = test system: monosodium iodoacetate (MIA)-induced osteoarthritis; test: MIA rat model, acute single oral dose: change in hind paw weight distribution (joint pain); conditions: for shift in weight bearing potential (joint pain) versus pre-dose: 2, 4 and 6 hours post administration
Experimental: as §1
The rats were anesthetized with 5% volume/volume (“v/v”) isoflurane gas and maintained with 2% v/v isoflurane gas. The anesthetized rats were given a single intra-articular injection of 1 mg of MIA through the infrapatellar ligament of the right knee. MIA was dissolved in physiologic saline and administered in a volume of 50 μL. The contralateral control knee was injected with 50 μL of physiologic saline. Administration of isoflurane gas was discontinued, and the rats became fully conscious about 5 minutes later.
Shifts in hind paw weight distribution from the right to the left hind paws supporting the right (arthritic) and the left (contralateral control) hind leg knee joints were utilized as an index of joint pain and as a measure of compound efficacy. An incapacitance tester (Model 2KG, Linton Instrumentation, UK) was employed for determination of hind paw weight distribution. Each data point is the mean of three readings of 5 seconds duration.
CI-1027 (i.e., 6-(5-carboxy-5-methyl-hexyloxy)-2,2-dimethyl-hexanoic acid, calcium salt) was dissolved in hydroxypropylmethylcellulose (“HPMC”) vehicle (0.05% HPMC+0.2% Tween 80; compound amount was adjusted based on the percent of free acid, i.e., 6-(5-carboxy-5-methyl-hexyloxy)-2,2-dimethyl-hexanoic acid).
[…] Rats were then given a single, 10, 30, or 100 mg/kg, dose of CI-1027 via oral gavage (PO). Changes in hind paw weight distribution were determined 2, 4 and 6 hours post-compound administration.
6-(5-carboxy-5-methyl-hexyloxy)-2,2-dimethyl-hexanoic acid, calcium salt (“CI-1027”) and rofecoxib was tested in the rat MIA model in an acute dosing paradigm as described previously. MIA was injected into the right knee and saline into the left knee of all rats on Day 0. […] Two hours later, the rats were reassessed. The results for inhibition of pain, expressed as a percentage±standard error of the mean, are shown below in Table 5. The percent inhibition of pain was determined as described above in Biological Method 1. […] N=8 rats per group.

CC(C)(CCCCOCCCCC(C)(C)C(=O)[O-])C(=O)[O-].[Ca+2] [CI-1027, 6-(5-carboxy-5-methyl-hexyloxy)-2,2-dimethyl-hexanoic acid, calcium salt]
inhibition of change in hind paw weight distribution ([1]; 10 mg/kg PO 3 hours before IL-6/IL-6sR injection, 1 hour post injection (FIG. 6)): 53±9% | inhibition of change in hind paw weight distribution ([1]; 10 mg/kg PO 3 hours before injection, repeat experiment, blinded readings (FIG. 7)): 63±6% | inhibition of change in hind paw weight distribution ([1]; 30 mg/kg PO 3 hours before IL-6/IL-6sR injection, 1 hour post injection (FIG. 6)): 74±8% | inhibition of change in hind paw weight distribution ([1]; 30 mg/kg PO 3 hours before injection, repeat experiment, blinded readings (FIG. 7)): 71±10% | inhibition of change in hind paw weight distribution ([1]; 100 mg/kg PO 3 hours before IL-6/IL-6sR injection, 1 hour post injection (FIG. 6)): 57±15% | change in hind paw weight distribution ([1]; 10, 30, 100 mg/kg PO, 3 and 6 hours post injection (6 and 9 hours post administration)): No significant effect | Inhibition of Pain (% versus control), IL-6 ([1]; single oral dose 30 mg/kg on Day 1, 4 hours post dose): 71 ± 10% | change in mouse ankle joint and paw swelling ([2]; 100 mg/kg oral daily, Day 7): inhibits a change in mouse ankle joint and paw swelling | change in mouse ankle joint and paw swelling ([2]; 200 mg/kg oral daily, Days 4, 7 and 9): inhibits a change in mouse ankle joint and paw swelling | shift in weight bearing potential (joint pain) versus pre-dose ([3]; 10 mg/kg PO single dose on Day 14): did not significantly alter | shift in weight bearing potential (joint pain) versus pre-dose ([3]; 30 mg/kg PO single dose on Day 14): only the change at the 4-hour post dose time point was statistically significant | shift in weight bearing potential (joint pain) versus pre-dose ([3]; 100 mg/kg PO single dose on Day 14): statistically significant | Mean pain alleviation at 2 hours post administration (% ± SEM) ([3]; CI-1027 10 mg/kg PO alone, Day 14): 20 ± 9% | Inhibition of Pain (% versus control), MIA (acute) ([3]; single oral dose 30 mg/kg on Day 7, 4 hours post dose): 67 ± 8%
